ChEMBL document CHEMBL3112491, “3-(5-)-Amino-o-diarylisoxazoles: regioselective synthesis and antitubulin activity” (2014)

Key:
Assay type in all cases: functional
IGROV-1 = experiment: Growth inhibition of human IGROV1 cells after 48 hrs by sulforhodamine B assay; conditions: IGROV-1, 48 h
MDA-MB-435 = experiment: Growth inhibition of human MDA-MB-435 cells after 48 hrs by sulforhodamine B assay; conditions: MDA-MB-435, 48 h
SK-MEL-28 = experiment: Growth inhibition of human SK-MEL-28 cells after 48 hrs by sulforhodamine B assay; conditions: SK-MEL-28, 48 h
SK-OV-3 = experiment: Growth inhibition of human SKOV3 cells after 48 hrs by sulforhodamine B assay; conditions: SK-OV-3, 48 h
[1] = Growth inhibition of human UO31 cells after 48 hrs by sulforhodamine B assay; conditions: UO-31, 48 h
MDA-MB-468 = experiment: Growth inhibition of human MDA-MB-468 cells after 48 hrs by sulforhodamine B assay; conditions: MDA-MB-468, 48 h
OVCAR-8 = experiment: Growth inhibition of human OVCAR8 cells after 48 hrs by sulforhodamine B assay; conditions: OVCAR-8, 48 h
OVCAR-3 = experiment: Growth inhibition of human OVCAR3 cells after 48 hrs by sulforhodamine B assay; conditions: OVCAR-3, 48 h
[2] = Growth inhibition of human HCC2998 cells after 48 hrs by sulforhodamine B assay; conditions: HCC 2998, 48 h
SNB-19 = experiment: Growth inhibition of human SNB19 cells after 48 hrs by sulforhodamine B assay; conditions: SNB-19, 48 h
HCT-15 = experiment: Growth inhibition of human HCT15 cells after 48 hrs by sulforhodamine B assay; conditions: HCT-15, 48 h
ACHN = experiment: Growth inhibition of human ACHN cells after 48 hrs by sulforhodamine B assay
Paracentrotus lividus [3] = experiment: Microtubule destabilizing activity in sea urchin free-swimming blastula assessed as embryo spinning treated at 9 to 10 hrs post-fertilization measured after 0.15 to 15 hrs
SR = experiment: Growth inhibition of human SR cells after 48 hrs by sulforhodamine B assay
NCI-H322M = experiment: Growth inhibition of human NCI-H322M cells after 48 hrs by sulforhodamine B assay
CAKI-1 = experiment: Growth inhibition of human CAKI-1 cells after 48 hrs by sulforhodamine B assay; conditions: CAKI-1, 48 h
TK-10 = experiment: Growth inhibition of human TK10 cells after 48 hrs by sulforhodamine B assay; conditions: TK-10, 48 h
[4] = Growth inhibition of human UACC257 cells after 48 hrs by sulforhodamine B assay; conditions: UACC-257, 48 h
[5] = Growth inhibition of human SF539 cells after 48 hrs by sulforhodamine B assay; conditions: SF-539, 48 h
SK-MEL-5 = experiment: Growth inhibition of human SK-MEL-5 cells after 48 hrs by sulforhodamine B assay; conditions: SK-MEL-5, 48 h
[6] = Growth inhibition of human RXF393 cells after 48 hrs by sulforhodamine B assay; conditions: RXF 393, 48 h
Paracentrotus lividus [7] = experiment: Antimitotic activity in sea urchin fertilized egg assessed as cleavage arrest treated at 8 to 20 mins post-fertilization measured at 2.5 to 5.5 hrs post-fertilization
786-0 = experiment: Growth inhibition of human 786-0 cells after 48 hrs by sulforhodamine B assay; conditions: 786-0, 48 h
K562 = experiment: Growth inhibition of human K562 cells after 48 hrs by sulforhodamine B assay; conditions: K562, 48 h
NCI-H522 = experiment: Growth inhibition of human NCI-H522 cells after 48 hrs by sulforhodamine B assay; conditions: NCI-H522, 48 h
MDA-MB-231 = experiment: Growth inhibition of human MDA-MB-231 cells after 48 hrs by sulforhodamine B assay; conditions: MDA-MB-231, 48 h
DU-145 = experiment: Growth inhibition of human DU145 cells after 48 hrs by sulforhodamine B assay; conditions: DU-145, 48 h
CCRF-CEM = experiment: Growth inhibition of human CCRF-CEM cells after 48 hrs by sulforhodamine B assay
HT-29 = experiment: Growth inhibition of human HT-29 cells after 48 hrs by sulforhodamine B assay; conditions: HT-29, 48 h
SW-620 = experiment: Growth inhibition of human SW620 cells after 48 hrs by sulforhodamine B assay; conditions: SW-620, 48 h
PC-3 = experiment: Growth inhibition of human PC3 cells after 48 hrs by sulforhodamine B assay; conditions: PC-3, 48 h
MCF7 = experiment: Growth inhibition of human MCF7 cells after 48 hrs by sulforhodamine B assay; conditions: MCF7, 48 h
A498 = experiment: Growth inhibition of human A498 cells after 48 hrs by sulforhodamine B assay; conditions: A498, 48 h
SF-268 = experiment: Growth inhibition of human SF268 cells after 48 hrs by sulforhodamine B assay; conditions: SF-268, 48 h
SF-295 = experiment: Growth inhibition of human SF295 cells after 48 hrs by sulforhodamine B assay; conditions: SF-295, 48 h
HOP-62 = experiment: Growth inhibition of human HOP62 cells after 48 hrs by sulforhodamine B assay; conditions: HOP-62, 48 h
[8] = Growth inhibition of human Hs 578T cells after 48 hrs by sulforhodamine B assay
NCI-H460 = experiment: Growth inhibition of human NCI-H460 cells after 48 hrs by sulforhodamine B assay; conditions: NCI-H460, 48 h
UACC-62 = experiment: Growth inhibition of human UACC62 cells after 48 hrs by sulforhodamine B assay; conditions: UACC-62, 48 h
BT-549 = experiment: Growth inhibition of human BT549 cells after 48 hrs by sulforhodamine B assay; conditions: BT-549, 48 h
SN12C = experiment: Growth inhibition of human SN12C cells after 48 hrs by sulforhodamine B assay
T47D = experiment: Growth inhibition of human T47D cells after 48 hrs by sulforhodamine B assay
Paracentrotus lividus [9] = experiment: Antimitotic activity in sea urchin fertilized egg assessed as cleavage alteration treated at 8 to 20 mins post-fertilization measured at 2.5 to 5.5 hrs post-fertilization
RPMI-8226 = experiment: Growth inhibition of human RPMI8226 cells after 48 hrs by sulforhodamine B assay; conditions: RPMI-8226, 48 h
HL-60(TB) = experiment: Growth inhibition of human HL-60(TB) cells after 48 hrs by sulforhodamine B assay; conditions: HL-60, 48 h
Malme-3M = experiment: Growth inhibition of human MALME-3M cells after 48 hrs by sulforhodamine B assay
SNB-75 = experiment: Growth inhibition of human SNB75 cells after 48 hrs by sulforhodamine B assay; conditions: SNB-75, 48 h
HCT-116 = experiment: Growth inhibition of human HCT116 cells after 48 hrs by sulforhodamine B assay; conditions: HCT-116, 48 h
NCI-H23 = experiment: Growth inhibition of human NCI-H23 cells after 48 hrs by sulforhodamine B assay; conditions: NCI-H23, 48 h
[10] = Growth inhibition of human OVCAR5 cells after 48 hrs by sulforhodamine B assay; conditions: OVCAR-5, 48 h
[11] = Growth inhibition of human NCI-ADR-RES cells after 48 hrs by sulforhodamine B assay
KM12 = experiment: Growth inhibition of human KM12 cells after 48 hrs by sulforhodamine B assay; conditions: KM12, 48 h
M14 = experiment: Growth inhibition of human M14 cells after 48 hrs by sulforhodamine B assay; conditions: M14, 48 h
[12] = Growth inhibition of human OVCAR4 cells after 48 hrs by sulforhodamine B assay; conditions: OVCAR-4, 48 h
COLO 205 = experiment: Growth inhibition of human COLO205 cells after 48 hrs by sulforhodamine B assay; conditions: COLO 205, 48 h
MOLT-4 = experiment: Growth inhibition of human MOLT4 cells after 48 hrs by sulforhodamine B assay; conditions: MOLT-4, 48 h
A549 = experiment: Growth inhibition of human A549/ATCC cells after 48 hrs by sulforhodamine B assay; conditions: A549, 48 h
NCI-H226 = experiment: Growth inhibition of human NCI-H226 cells after 48 hrs by sulforhodamine B assay; conditions: NCI-H226, 48 h

Q: With `COc1ccc(-c2noc(N)c2-c2cc(OC)c3c(c2)OCO3)cc1` as the compound, how does the GI50 (IGROV-1) read?
A: 4860 nM

Q: What about the GI50 (MDA-MB-435) of the same compound?
A: 237 nM

Q: What about the GI50 (SK-MEL-28) of the same compound?
A: 6790 nM

Q: What about the GI50 (SK-OV-3) of the same compound?
A: 3410 nM

Q: What about the GI50 [1] of the same compound?
A: 5900 nM

Q: What about the GI50 (MDA-MB-468) of the same compound?
A: 9660 nM

Q: What about the GI50 (OVCAR-8) of the same compound?
A: 3620 nM

Q: And the GI50 (OVCAR-3)?
A: 2630 nM

Q: What about the GI50 [2] of the same compound?
A: 1960 nM

Q: What about the GI50 (SNB-19) of the same compound?
A: 20400 nM

Q: What about the GI50 (HCT-15) of the same compound?
A: 620 nM

Q: And the GI50 (ACHN)?
A: 6210 nM

Q: What about the EC (Paracentrotus lividus [3]) of the same compound?
A: >5 µM

Q: What about the GI50 (SR) of the same compound?
A: 454 nM

Q: What about the GI50 (NCI-H322M) of the same compound?
A: 6660 nM

Q: What about the GI50 (CAKI-1) of the same compound?
A: 2780 nM

Q: What about the GI50 (TK-10) of the same compound?
A: 6360 nM

Q: And the GI50 [4]?
A: 6680 nM

Q: What about the GI50 [5] of the same compound?
A: 1690 nM

Q: And the GI50 (SK-MEL-5)?
A: 3360 nM

Q: And the GI50 [6]?
A: 2360 nM

Q: And the EC (Paracentrotus lividus [7])?
A: 2 µM

Q: What about the GI50 (786-0) of the same compound?
A: 5460 nM

Q: What about the GI50 (K562) of the same compound?
A: 404 nM

Q: And the GI50 (NCI-H522)?
A: 1020 nM

Q: What about the GI50 (MDA-MB-231) of the same compound?
A: 2350 nM

Q: What about the GI50 (DU-145) of the same compound?
A: 3110 nM

Q: What about the GI50 (CCRF-CEM) of the same compound?
A: 1020 nM

Q: What about the GI50 (HT-29) of the same compound?
A: 1330 nM

Q: And the GI50 (SW-620)?
A: 726 nM

Q: And the GI50 (PC-3)?
A: 3290 nM

Q: What about the GI50 (MCF7) of the same compound?
A: 798 nM

Q: What about the GI50 (A498) of the same compound?
A: 1310 nM

Q: What about the GI50 (SF-268) of the same compound?
A: 5000 nM

Q: And the GI50 (SF-295)?
A: 2800 nM

Q: What about the GI50 (HOP-62) of the same compound?
A: 2850 nM

Q: What about the GI50 [8] of the same compound?
A: 2810 nM

Q: What about the GI50 (NCI-H460) of the same compound?
A: 2870 nM

Q: And the GI50 (UACC-62)?
A: 5100 nM

Q: What about the GI50 (BT-549) of the same compound?
A: 3400 nM

Q: What about the GI50 (SN12C) of the same compound?
A: 4100 nM

Q: And the GI50 (T47D)?
A: 2750 nM

Q: And the EC (Paracentrotus lividus [9])?
A: 0.2 µM

Q: What about the GI50 (RPMI-8226) of the same compound?
A: 2910 nM

Q: What about the GI50 (HL-60(TB)) of the same compound?
A: 1290 nM

Q: What about the GI50 (Malme-3M) of the same compound?
A: 9660 nM

Q: And the GI50 (SNB-75)?
A: 1810 nM

Q: And the GI50 (HCT-116)?
A: 2440 nM

Q: What about the GI50 (NCI-H23) of the same compound?
A: 2820 nM

Q: What about the GI50 [10] of the same compound?
A: 5010 nM

Q: What about the GI50 [11] of the same compound?
A: 563 nM

Q: And the GI50 (KM12)?
A: 1580 nM

Q: What about the GI50 (M14) of the same compound?
A: 1300 nM

Q: What about the GI50 [12] of the same compound?
A: 22800 nM

Q: And the GI50 (COLO 205)?
A: 1850 nM

Q: What about the GI50 (MOLT-4) of the same compound?
A: 1280 nM

Q: What about the GI50 (A549) of the same compound?
A: 2730 nM

Q: And the GI50 (NCI-H226)?
A: 13700 nM
